From patent US20240254089A1, “MODULATORS OF MAS-RELATED G-PROTEIN RECEPTOR X4 AND RELATED PRODUCTS AND METHODS” (ESCIENT PHARMACEUTICALS, INC., priority 2020, published 2024)
Read-outs that look alike come from different tables or passages of the source.

Biological target: T1, human MRGPR X4 (Homo sapiens, UniProt Q96LA9)
T1 construct: expressed in transfected cells
Experiment: MRGPR X4 antagonist activity, IP-One Gq HTRF assay in stably transfected HEK cells
Type: cell-based
Experimental: HEK cells stably transfected to express human MIRGPR X4 were maintained in an incubator at 37° C. with 5% CO2 and grown in DMEM media with 10% fetal bovine serum (FBS) and […] each of sodium pyruvate, Glutamax, penicillin/streptomycin, and Geneticin. HEK cells stably transfected to express mouse MRGPR A1 were maintained in the same incubator and grown in DMEM media with 10% FBS, 1% each of sodium pyruvate, Glutamax, penicillin/streptomycin, Geneticin, and 2.2 mg/mL Hygromycin.
Cells were plated in a 384-well assay plate at 20,000 cells per well in 12 μL of Opti-MEM and kept in an incubator overnight. On the day of the assay, compounds solubilized at 10 mM in DMSO were added as a 10-point curve (10 uM final top concentration with 1:3 serial dilutions) using a Tecan D300E digital dispenser. Agonists were diluted in assay buffer (final concentrations of 5.7 mM Tris-HCl, 43 mM NaCl, 50 mM LiCl, pH=8) and 2 μL of the appropriate agonist are added to each well. Final concentrations of agonists were 10 μM bilirubin, 20 μM deoxycholic acid, or 100 μM conjugated bilirubin (obtained from Lee Biosolutions, catalog #910-12). Final concentrations of DMSO were kept consistent across the plate. Plates were incubated in the dark for 1 h at 37° C. and then for 30 minutes at room temperature. IP-1 standards and HTRF detection reagents were added according to the IP-One—Gq Kit purchased from Cisbio (part number 62IPAPEJ) and incubated in the dark for 1 h at room temperature. The plate was read on a Molecular Devices SpectraMax iD5 plate reader. The HTRF ratio was calculated from the raw data and graphed using GraphPad Prism to calculate an IC50 value for each compound.

[1] = versus 20 μM deoxycholic acid agonist, HEK cells expressing human MRGPR X4, read-out: MRGPRX4 Antagonist Activity

T1 sequence (Q96LA9 whole entry): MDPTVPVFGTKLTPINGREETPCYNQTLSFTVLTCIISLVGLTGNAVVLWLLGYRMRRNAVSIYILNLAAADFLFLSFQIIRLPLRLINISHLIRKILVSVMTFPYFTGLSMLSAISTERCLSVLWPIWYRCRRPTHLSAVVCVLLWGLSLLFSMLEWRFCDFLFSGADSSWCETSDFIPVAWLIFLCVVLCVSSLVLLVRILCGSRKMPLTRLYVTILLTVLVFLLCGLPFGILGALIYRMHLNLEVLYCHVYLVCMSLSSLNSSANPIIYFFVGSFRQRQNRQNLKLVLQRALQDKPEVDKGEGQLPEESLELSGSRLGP

SMILES | IC50 | IC50 [1]
O=C(NCc1ccnnc1)c1nn(Cc2ccc(Cl)cc2)c2ccccc12 [Compound 405] | > 2.5 µM | 
O=C(NCCc1nnc2ccccn12)c1nn(Cc2nc(C(F)(F)F)no2)c2ccccc12 [Compound 513] | > 2.5 µM | 
Cc1nc(S(=O)(=O)NC(=O)c2nn(Cc3ccc(Cl)cc3)c3ccccc23)sc1C [Compound 271] |  | 1 to 2.5 µM
O=C(NCC1(c2cccnc2)CC1)c1cn(Cc2ccc(Cl)cc2)c2ccccc12 [Compound 230] |  | > 2.5 µM
Cn1c(CCNC(=O)c2nn(Cc3ccc(Cl)cc3)c3ccccc23)nc2ccccc21 [Compound 397] | 0.1 to 0.5 µM | 
C#Cc1ccc(Cn2nc(C(=O)NCCc3nnc4ccccn34)c3ccccc32)cc1 [Compound 445, N-(2-([1,2,4]triazolo[4,3-a]pyridin-3-yl)ethyl)-1-(4-ethynylbenzyl)-1H-indazole-3-carboxamide] | 0.1 to 0.5 µM | 
O=C(NCCc1cccnc1)c1nn(Cc2ccc(Cl)cc2Cl)c2ccccc12 [Compound 16] | < 0.1 µM | 
Cc1cccc(Cn2nc(C(=O)NCCc3cccnc3)c3ccccc32)c1 [Compound 115] | 1 to 2.5 µM | 
N#Cc1ccc2nc(CNC(=O)c3nn(Cc4ccc(Cl)cc4)c4ccccc34)cn2c1 [Compound 424] | 0.501 to 1 µM | 
Cc1cccc(C(F)(F)F)c1Cn1nc(C(=O)NCCc2nnc3ccccn23)c2ccccc21 [Compound 457] | > 2.5 µM | 
O=C(CS(=O)(=O)c1cn(Cc2ccc(Cl)cc2)c2ccccc12)Nc1ccc(Cl)c(Cl)c1 [Compound 249] |  | 1 to 2.5 µM
CC(C)(C)c1cnc(Cn2nc(C(=O)NCCc3nnc4ccccn34)c3ccccc32)o1 [Compound 415] | 0.501 to 1 µM | 
Cc1[nH]c2ccc(O)cc2c1CCNC(=O)c1nn(Cc2ccc(Cl)cc2)c2ccc(F)cc12 [Compound 534] | < 0.1 µM | 
O=C(NCCNC(=O)c1nn(Cc2ccc(Cl)cc2)c2ccccc12)c1ccccc1 [Compound 400] | 0.1 to 0.5 µM | 
O=C(NCCOc1ccncc1)c1nn(Cc2ccc(Cl)cc2)c2ccccc12 [Compound 406] |  | 1 to 2.5 µM
Cc1ccc(Cn2nc(C(=O)NCCc3ccncc3)c3ccccc32)cc1 [Compound 78] | 0.501 to 1 µM | 
O=C(NCCc1nnc2ccccn12)c1nn(Cc2cnn(-c3ccccc3)c2)c2ccccc12 [Compound 498] | 0.1 to 0.5 µM | 
COCCn1cnnc1CCNC(=O)c1nn(Cc2ccc(Cl)cc2)c2ccccc12 [Compound 92] | 0.501 to 1 µM | 
COc1ccc(S(=O)(=O)NC(=O)c2nn(Cc3ccc(OC(F)F)cc3)c3ccccc23)cc1 [Compound 289] |  | 1 to 2.5 µM
O=C(NCc1ccnc2ccccc12)c1nn(Cc2ccc(Cl)cc2)c2ccccc12 [Compound 371] | > 2.5 µM | 
O=C(NCCc1nnc2ccccn12)c1nn(Cc2ccc3ccccc3n2)c2ccccc12 [Compound 412] | 0.1 to 0.5 µM | 
CN(C)C(=O)CS(=O)(=O)c1cn(Cc2ccc(Cl)cc2)c2ccccc12 [Compound 252] |  | 1 to 2.5 µM
Cc1ccc(CCNC(=O)c2cn(Cc3ccc(Cl)cc3)c3ccccc23)cc1 [Compound 175] | 0.1 to 0.5 µM | 
Cc1cccc(S(=O)(=O)NC(=O)c2nn(Cc3ccc(OC(F)F)cc3)c3ccccc23)c1Cl [Compound 283] |  | 1 to 2.5 µM

SMILES | IC50 | IC50 [1]
O=C(NCCc1cccnc1)c1nn(Cc2ccc(OC(F)(F)F)cc2)c2ccccc12 [Compound 136, N-(2-(pyridin-3-yl)ethyl)-1-(4-(trifluoromethoxy)benzyl)-1H-indazole-3-carboxamide] | 0.1 to 0.5 µM | 
Cc1cccc(Cn2cc(C(=O)NCCc3cccnc3)c3ccccc32)c1 [Compound 201] | 1 to 2.5 µM | 
O=C(NCCc1ccc(=O)[nH]c1)c1cn(Cc2ccc(Cl)cc2)c2ccccc12 [Compound 220] | 1 to 2.5 µM | 
O=C(NCCc1cccc(C(F)(F)F)n1)c1nn(Cc2ccc(Cl)cc2)c2ccccc12 [Compound 117] | 1 to 2.5 µM | 
O=C(NCCc1nnc2ccccn12)c1nn(Cc2nnc(-c3ccccc3)o2)c2ccccc12 [Compound 414] | 0.1 to 0.5 µM | 
O=C(NCCc1nnc2ccccn12)c1nn(Cc2cccc3c2CCO3)c2ccccc12 [Compound 491] | 0.1 to 0.5 µM | 
Cc1cccc(S(=O)(=O)NC(=O)c2nn(Cc3ccc(F)cc3)c3ccccc23)c1 [Compound 292] |  | 1 to 2.5 µM
Cc1cc(Cl)ccc1Cn1nc(C(=O)NCCc2nnc3n2CCCCC3)c2ccccc21 [Compound 11] | < 0.1 µM | 
O=C(NCCc1cncnc1)c1cn(Cc2ccc(Cl)cc2)c2ccccc12 [Compound 215] | 1 to 2.5 µM | 
O=C(NCCOCc1ccccc1)c1nn(Cc2ccc(Cl)cc2)c2ccccc12 [Compound 337] |  | > 2.5 µM
Cc1c(C(=O)NCCc2cccnc2)c2ccccc2n1Cc1ccc(Cl)cc1 [Compound 227] | > 2.5 µM | 
O=C(CNC(=O)c1nn(Cc2ccc(Cl)cc2)c2ccccc12)c1ccc(O)cc1 [Compound 382] | 0.501 to 1 µM | 
Cc1ccncc1CCNC(=O)c1cn(Cc2ccc(Cl)cc2)c2ccccc12 [Compound 161] | 0.1 to 0.5 µM | 
O=C(CNC(=O)c1nn(Cc2ccc(Cl)cc2)c2ccccc12)NCC(F)F [Compound 418] | > 2.5 µM | 
COc1ccc2ccccc2c1Cn1nc(C(=O)NCCc2nnc3ccccn23)c2ccccc21 [Compound 453] | 1 to 2.5 µM | 
O=C(NCCc1nnc2ccccn12)c1nn(Cc2ccc3c(c2)CCCC3)c2ccccc12 [Compound 559] | < 0.1 µM | 
CCc1nc(CCNC(=O)c2nn(Cc3ccc(Cl)cc3)c3ccccc23)sc1C [Compound 79] | 0.501 to 1 µM | 
O=C(NCCc1cccnc1)c1nn(Cc2ccccc2Cl)c2ccccc12 [Compound 89] | 0.501 to 1 µM | 
Cc1ccc(CCNC(=O)c2cn(Cc3cccc(F)c3)c3ccccc23)cn1 [Compound 202] | 1 to 2.5 µM | 
O=C(NCCc1ccccc1F)c1cn(Cc2ccc(Cl)cc2)c2ccccc12 [Compound 170] | 0.1 to 0.5 µM | 
O=C(NCCc1nnc2ccccn12)c1nn(Cc2ccc3ncccc3c2)c2ccccc12 [Compound 458] | 0.501 to 1 µM | 
COc1ccc(Cn2nc(C(=O)NCCc3nnc4ccccn34)c3ccccc32)nc1 [Compound 448] | > 2.5 µM | 
Cc1nc(CCNC(=O)c2nn(Cc3ccc(Cl)cc3)c3ccccc23)sc1C(=O)O [Compound 88] | 0.501 to 1 µM | 
O=C(NCCN1CCCc2ccccc21)c1nn(Cc2ccc(Cl)cc2)c2ccccc12 [Compound 373] | 0.501 to 1 µM | 

SMILES | IC50 | IC50 [1]
O=C(NCCc1cccnc1C(F)(F)F)c1cn(Cc2ccc(Cl)cc2)c2ccccc12 [Compound 189] | 0.501 to 1 µM | 
N#Cc1ccc(Cn2nc(C(=O)NCCc3nnc4ccccn34)c3ccccc32)s1 [Compound 466] | 0.1 to 0.5 µM | 
Cc1cccc(S(=O)(=O)NC(=O)c2nn(Cc3ccc(Cl)cc3)c3ccccc23)c1 [Compound 279] |  | 1 to 2.5 µM
Cc1cccc(CCNC(=O)c2cn(Cc3ccc(Cl)cc3)c3ccccc23)c1 [Compound 180] | 0.1 to 0.5 µM | 
Cc1ccc(Cn2nc(C(=O)NCCc3nc4c(s3)CCCC4)c3c(F)cccc32)cc1 [Compound 69] | 0.1 to 0.5 µM | 
O=C(NCCc1nnc2ccccn12)c1nn(Cc2ccc(F)cc2)c2ccccc12 [Compound 51] | 0.1 to 0.5 µM | 
Cc1cccc(CCn2nc(C(=O)NCCc3nnc4ccccn34)c3ccccc32)c1 [Compound 523] | 1 to 2.5 µM | 
N=C(N)NCCCCNC(=O)c1nn(Cc2ccc(Cl)cc2)c2ccccc12 [Compound 346] | 1 to 2.5 µM | 
Cc1ccc(Cn2nc(C(=O)NCCc3ccc[nH]3)c3ccccc32)cc1 [Compound 104] | 1 to 2.5 µM | 
O=C(CNC(=O)c1nn(Cc2ccc(Cl)cc2)c2ccccc12)c1ccc(F)cc1F [Compound 380] | > 2.5 µM | 
Cc1cc(Cl)ccc1Cn1nc(C(=O)O)c2ccccc21 [Compound 324] |  | > 2.5 µM
Cn1cc2ccc(CNC(=O)c3nn(Cc4ccc(Cl)cc4)c4ccccc34)cc2n1 [Compound 391] | 1 to 2.5 µM | 
O=C(CS(=O)(=O)c1cn(Cc2ccc(Cl)cc2)c2ccccc12)Nc1ccc(Cl)cc1Cl [Compound 251] |  | 1 to 2.5 µM
Cc1c(Cn2nc(C(=O)NCCc3nnc4ccccn34)c3ccccc32)cccc1-c1ccccc1 [Compound 449] | 0.1 to 0.5 µM | 
Cc1ccc(CCNC(=O)c2nn(Cc3ccc(OC(F)F)cc3)c3ccccc23)cc1 [Compound 120] | 1 to 2.5 µM | 
O=C(NCCc1cccnc1)c1nn(Cc2ccc(Cl)cc2F)c2ccccc12 [Compound 18] | < 0.1 µM | 
O=C(NCCc1ccc(Cl)c(F)c1)c1cn(Cc2ccc(F)cc2)c2ccccc12 [Compound 198] | 0.501 to 1 µM | 
O=C(O)c1nn(Cc2ccc(F)cc2)c2ccccc12 [Compound 331] | > 2.5 µM | 
O=C(NCCc1nnc2ccccn12)c1nn(Cc2ccc3sccc3c2)c2ccc(F)cc12 [Compound 538] | < 0.1 µM | 
Cc1ncccc1CCNC(=O)c1cn(Cc2ccc(Cl)cc2)c2ccccc12 [Compound 152, 1-(4-chlorobenzyl)-N-(2-(2-methylpyridin-3-yl)ethyl)-1H-indole-3-carboxamide] | < 0.1 µM | 
Cc1cc(Cn2nc(C(=O)NCCc3nc4c(s3)CCCC4)c3ccccc32)ccc1Cl [Compound 68] | 0.1 to 0.5 µM | 
O=C(NCCc1nnc2ccccn12)c1nn(Cc2ccc(Cl)cc2)c2c(Br)cccc12 [Compound 541] | < 0.1 µM | 
Cc1ccccc1CCNC(=O)c1cn(Cc2ccc(Cl)cc2)c2ccccc12 [Compound 178] | 0.1 to 0.5 µM | 
